The results in this text go back to publication PMC5073322, “Novel Natural Product-like Caged Xanthones Bearing a Carbamate Moiety Exhibit Antitumor Potency and Anti-Angiogenesis Activity In vivo” (Scientific Reports, 2016).

Molecules are shown by their SMILES.

Data set [1] deals with MDA-MB-231. Briefly: MTT antiproliferative assay, MDA-MB-231. The conditions noted are these: read-out: IC50 MDA-MB-231; MTT, 72 h.
Method: (§1) The inhibition of tumour cell growth was measured by a modified tetrazolium (MTT) salt assay, as previously described[39]. Cells were cultured in a 96-well plate and treated with culture medium alone or different concentrations of the compounds. The cells were incubated for 72 h, and then, the MTT assay reagent was added. After a 4 h incubation, the formazan product was quantitated at 570 nm. The IC50 values (the concentrations that gave rise to 50% inhibition of cell viability) were calculated using GraphPad Prism 6 using a variable slope (four parameters).
The test system of data set [2] is HUVECs. Briefly: Wound healing assay (hypoxia-induced migration). Format: cell-based, human. The conditions noted are these: 0.01, 0.05 and 0.25 μM, 24 h. Here is the method: GA was reported to inhibit tumour angiogenesis and may be a viable drug candidate for anti-angiogenesis and anticancer therapies. Therefore, the anti-angiogenesis activity of the caged xanthone derivative 8n was evaluated. Human umbilical vein endothelial cells (HUVECs) were used in all experiments. Cell migration is critical for endothelial cells to form blood vessels during angiogenesis, tumour growth and metastasis. […] Endothelial cell invasion is a critical part of angiogenesis; therefore, a transwell assay was performed to evaluate the ability of inactivated HUVECs to pass through the transwell membrane barrier in the presence of 8n.
Figure 8 8n had anti-angiogenesis activity in vitro and in vivo. (A) A wound-healing assay was used to evaluate the motility of HUVECs after treatment with 8n for 24 h. (B) Changes in cell motility were evaluated using a transwell assay of cell migration and invasion. (C) The effect of 8n on tube formation by HUVECs. HUVECs were incubated with 8n for 6 h and then transferred to Matrigel for 6 h. (D) Zebrafish embryos treated with blank control or 1, 10, or 50 μg/ml of 8n.
HUVECs were incubated in a 6-well plate until full confluence. […] Then, the wound edges were photographed under an inverted-phase microscope and measured.

The test system of data set [3] is HepG2 tumours. Briefly: HepG2 hepatoblastoma xenograft in nude mice. Format: in vivo. The conditions noted are these: 20 days; for inhibition of the tumour volume: IV, twice-daily. How it is done: Given the in vitro anti-tumour cell activity of 8n, we continued to evaluate its in vivo effect in hepatoblastoma xenograft models using previously reported methods, and the water-soluble anti-cancer drug 5-fluorouracil (5-FU) was used as a positive control. After tumours were established, the mice were IV injected with 2.5, 5, 10 or 50 mg/kg 8n; the lead compound DDO-6101 and antitumour drug 5-FU were used as controls. All mice had normal weights and quality of life in in vivo tests. […] The in vivo activity of 8n was also evaluated after oral administration. […] This observation may be attributed to the improved physicochemical properties of 8n compared to those of DDO-6101, such as aqueous solubility and cell membrane permeability, which were provided by modification with the carbamate moiety.
Figure 7 (A) The tumour diameters were measured and used to calculate the tumour volumes. The HepG2 xenograft-bearing mice were intravenously injected with 2.5, 5, 10 and 50 mg/kg 8n for 20 days. (B) After 20 days, mice were sacrificed and the individual tumours were weighed. *p < 0.05, […]; Student’s t-test (n = 6). (C) The tumour diameters were measured and used to calculate the tumour volumes. The HepG2 xenograft-bearing mice were orally administered 50 mg/kg 8n, 50 mg/kg DDO-6101 or 10 mg/kg 5-FU for 20 days.
All studies were performed in compliance with the relevant guidelines and regulations. Tumours on female nude mice were established by injecting 1×10^7 HepG2 cells on the dorsal surface. After four weeks, tumours of approximately 150 mm^3 were cut into pieces that were 3 mm×3 mm×3 mm in size and were then implanted in the dorsal surface of other female nude mice. One week later, mice implanted with xenografts of 100 mm^3 were selected, randomized, and […] injected with 2.5, 5, or 10-mg/kg 8n or vehicle daily for another three weeks. The tumour dimensions were measured daily with vernier calipers, and the tumour volumes were calculated using the formula: volume = (width)^2 × length/2.

Data set [4] can be described thus: Water solubility by HPLC. The class given is physicochemical. The conditions noted are these: deionized water, stirred overnight, HPLC 290 nm. An excerpt:
The physicochemical characteristics of compounds directly determine their potential drug-like properties. Assessing a compound’s physicochemical properties before performing in vivo evaluations can guide further studies and minimize the time and cost associated with drug discovery. Therefore, parallel to the in vivo study, these solubilities of these compounds in water were experimentally measured using high-performance liquid chromatography (HPLC). Based on the results of full wave scanning, 290 nm was chosen as the maximum absorption wavelength for HPLC detection.
A HPLC system with an ultraviolet (UV) detector was used to detect the solubility of the compounds. The optimal wavelength was 290 nm. Ethanol/water (85:15) was an efficient eluent at a flow rate of 0.5 mL/min. The compounds were stirred in deionized water overnight to maximize the retention of the compounds in solution. Then, the solutions were filtered and the supernatant was used as a fluid sample for HPLC detection. The permeability (Pe) of some of the compounds was tested with the help of a standard PAMPA (pION), as previously reported. PAMPA was performed on a PAMPA Explorer instrument (pION, Inc., Woburn, MA) with the PAMPA Explorer command software (Version 3.7.4.1). The compounds were diluted to 10 mM with the system solution buffer (pH 7.4). Then, 150 μL of the diluted compound solution was transferred to a UV plate, and the UV spectrum was collected and used as a reference. Then, paint the membrane with 5 μL of gastrointestinal tract (GIT) lipid. The acceptor chamber was filled with 200 μL of acceptor solution buffer, and the donor chamber was filled with 200 μL of diluted compound solution. The PAMPA sandwich was assembled and left at 25 °C for 4 h. The UV spectra (240–500 nm) from the donor and the acceptor were collected. The permeability coefficient was calculated with the PAMPA Explorer Command software (Version 3.7.4.1) based on the area under the curve (AUC) of the reference plate, the donor plate, and the acceptor plate. The permeability coefficient of the compound was tested for four times, and the data are shown as the average values. Ketoprofen (4.5×10^−6 cm/s) and propranolol (112.8×10^−6 cm/s) were used as the standards in this assay.

The subject of data set [5] is A549/taxol. Briefly: MTT antiproliferative assay, Taxol-resistant A549. Format: cell-based. Particulars: read-out: IC50 A549/taxol; MTT, 72 h; Taxol-resistant A549.
Method: as §1

For `CC(C)=CCC12OC(C)(C)C3CC(C=C4C(=O)c5c(OC(=O)N6CCC(N7CCCCC7)CC6)cccc5OC431)C2=O` (centres unmarked) [Compound 8n], the results for the IC50 in data set [1] and in data set [5] were 1.2 ± 0.07 µM and 1.9 ± 0.12 µM, respectively. Besides, the “hypoxia-induced migration of HUVECs” value in data set [2] is listed as “suppressed hypoxia-induced migration in a concentration-dependent manner”. The “inhibition of the tumour volume” value stood at 27.97% in data set [3] (2.5 mg/kg), 38.50% in data set [3] (5 mg/kg) and 48.36% in data set [3] (10 mg/kg). Moreover, the “inhibition of tumour growth” value in data set [3] (50 mg/kg, oral, daily) was determined as 30.12%. Further, in data set [4], the “S, water solubility” value is above 40 mM.
